According to a compilation of properties of binary mixtures (doi:10.1007/s10953-010-9562-5):

Test: xn = mol fraction of the nth substance listed
Conditions: 101 kPa

CCCC[N+]1(C)CCCC1.O=S(=O)([N-]S(=O)(=O)C(F)(F)F)C(F)(F)F + CC1COC(=O)O1
Conditions	electrical conductivity [S/m]	viscosity [mPa·s]
293.15 K, x2 = 0.68	0.843	12.36
293.15 K, x2 = 0.74	0.884	9.88
293.15 K, x2 = 0.84	0.908	6.05
293.15 K, x2 = 0.89	0.853	4.71
293.15 K, x2 = 0.95	0.692	3.65
293.15 K, x2 = 0.97	0.582	–
298.15 K, x2 = 0	0.364	68.16
298.15 K, x2 = 0.05	0.394	56.05
298.15 K, x2 = 0.11	0.425	47.09
298.15 K, x2 = 0.16	0.46	40.44
298.15 K, x2 = 0.21	0.497	35.42
298.15 K, x2 = 0.26	0.538	31.51
298.15 K, x2 = 0.47	0.73	20.25
298.15 K, x2 = 0.53	0.784	17.72
298.15 K, x2 = 0.58	0.839	15.23
298.15 K, x2 = 0.68	0.942	10.56
298.15 K, x2 = 0.74	0.982	8.51
298.15 K, x2 = 0.79	1	6.74
298.15 K, x2 = 0.84	0.997	5.29
298.15 K, x2 = 0.89	0.934	4.14
298.15 K, x2 = 0.95	0.757	3.26
298.15 K, x2 = 0.97	0.628	–
303.15 K, x2 = 0	0.426	54.05
303.15 K, x2 = 0.05	0.458	44.95
303.15 K, x2 = 0.11	0.494	38.15
303.15 K, x2 = 0.16	0.532	33.05
303.15 K, x2 = 0.26	0.618	26.04
303.15 K, x2 = 0.32	0.666	23.45
303.15 K, x2 = 0.37	0.717	21.15
303.15 K, x2 = 0.47	0.828	16.91
303.15 K, x2 = 0.53	0.886	14.85
303.15 K, x2 = 0.58	0.944	12.83
303.15 K, x2 = 0.68	1.05	9.03
303.15 K, x2 = 0.79	1.11	5.9
303.15 K, x2 = 0.89	1.02	3.7
303.15 K, x2 = 0.95	0.826	2.93
303.15 K, x2 = 0.97	0.652	–
308.15 K, x2 = 0	0.505	44.38
308.15 K, x2 = 0.05	0.54	36.9
308.15 K, x2 = 0.11	0.578	31.36
308.15 K, x2 = 0.16	0.619	27.23
308.15 K, x2 = 0.21	0.663	24.11
308.15 K, x2 = 0.26	0.711	21.64
308.15 K, x2 = 0.32	0.762	19.59
308.15 K, x2 = 0.42	0.872	16.04
308.15 K, x2 = 0.47	0.931	14.35
308.15 K, x2 = 0.53	0.992	12.68
308.15 K, x2 = 0.58	1.05	11.01
308.15 K, x2 = 0.63	1.11	9.39
308.15 K, x2 = 0.68	1.16	7.85
308.15 K, x2 = 0.74	1.2	6.44
308.15 K, x2 = 0.79	1.22	5.2
308.15 K, x2 = 0.84	1.2	4.17
308.15 K, x2 = 0.89	1.11	3.34
308.15 K, x2 = 0.95	0.892	2.68
308.15 K, x2 = 0.97	0.691	–
313.15 K, x2 = 0	0.57	35.76
313.15 K, x2 = 0.05	0.611	30.14
313.15 K, x2 = 0.11	0.654	25.92
313.15 K, x2 = 0.16	0.701	22.74
313.15 K, x2 = 0.26	0.803	18.29
313.15 K, x2 = 0.37	0.916	15.11
313.15 K, x2 = 0.42	0.975	13.68
313.15 K, x2 = 0.53	1.1	10.88
313.15 K, x2 = 0.58	1.16	9.5
313.15 K, x2 = 0.63	1.21	8.15
313.15 K, x2 = 0.68	1.26	6.87
313.15 K, x2 = 0.74	1.29	5.69
313.15 K, x2 = 0.89	1.18	3.02
313.15 K, x2 = 0.95	0.946	2.45
318.15 K, x2 = 0.11	–	21.73
318.15 K, x2 = 0.16	–	19.16
318.15 K, x2 = 0.21	–	17.18
318.15 K, x2 = 0.26	–	15.58
318.15 K, x2 = 0.32	–	14.22
318.15 K, x2 = 0.37	–	12.99
318.15 K, x2 = 0.42	–	11.81
318.15 K, x2 = 0.53	–	9.47
318.15 K, x2 = 0.58	–	8.3
318.15 K, x2 = 0.63	–	7.16
318.15 K, x2 = 0.68	–	6.06
318.15 K, x2 = 0.74	–	5.05
318.15 K, x2 = 0.79	–	4.16
318.15 K, x2 = 0.84	–	3.39
318.15 K, x2 = 0.95	–	2.26
